Data taken from patent US9422285B2, “Substituted pyrazolo[1,5-A]-pyridine-3-carboxamides and use thereof” (Bayer Pharma Aktiengesellschaft, priority 2014, dated 2016).
Structures can show the parent of a compound that is named as a salt.

target: T1, recombinant guanylate cyclase reporter cell line (Rattus norvegicus, UniProt P19686+P20595); assay: Effect on a recombinant guanylate cyclase reporter cell line (B-2); type: cell-based; settings: in some cases mean values for individual determinations
T1 construct: expressed in transfected cells
T1 sequence (P19686 1-690): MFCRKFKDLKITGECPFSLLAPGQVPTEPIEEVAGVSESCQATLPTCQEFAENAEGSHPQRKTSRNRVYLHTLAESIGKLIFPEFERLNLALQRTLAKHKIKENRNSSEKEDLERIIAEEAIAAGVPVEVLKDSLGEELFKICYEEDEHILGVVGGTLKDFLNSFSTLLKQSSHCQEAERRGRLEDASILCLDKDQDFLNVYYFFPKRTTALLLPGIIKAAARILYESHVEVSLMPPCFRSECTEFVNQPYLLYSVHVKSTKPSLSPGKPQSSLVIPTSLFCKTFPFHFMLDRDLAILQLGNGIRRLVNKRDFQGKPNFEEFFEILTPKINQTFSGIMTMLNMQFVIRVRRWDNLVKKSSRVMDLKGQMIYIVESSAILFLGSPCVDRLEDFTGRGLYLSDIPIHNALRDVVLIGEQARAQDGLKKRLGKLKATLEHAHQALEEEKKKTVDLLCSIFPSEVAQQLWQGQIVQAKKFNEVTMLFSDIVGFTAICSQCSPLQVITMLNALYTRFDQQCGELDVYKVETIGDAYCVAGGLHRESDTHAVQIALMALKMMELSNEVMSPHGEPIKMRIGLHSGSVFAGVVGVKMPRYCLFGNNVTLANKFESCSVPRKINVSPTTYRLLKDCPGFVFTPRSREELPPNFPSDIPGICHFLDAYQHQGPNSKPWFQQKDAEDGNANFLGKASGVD
T1 sequence (P20595 1-619): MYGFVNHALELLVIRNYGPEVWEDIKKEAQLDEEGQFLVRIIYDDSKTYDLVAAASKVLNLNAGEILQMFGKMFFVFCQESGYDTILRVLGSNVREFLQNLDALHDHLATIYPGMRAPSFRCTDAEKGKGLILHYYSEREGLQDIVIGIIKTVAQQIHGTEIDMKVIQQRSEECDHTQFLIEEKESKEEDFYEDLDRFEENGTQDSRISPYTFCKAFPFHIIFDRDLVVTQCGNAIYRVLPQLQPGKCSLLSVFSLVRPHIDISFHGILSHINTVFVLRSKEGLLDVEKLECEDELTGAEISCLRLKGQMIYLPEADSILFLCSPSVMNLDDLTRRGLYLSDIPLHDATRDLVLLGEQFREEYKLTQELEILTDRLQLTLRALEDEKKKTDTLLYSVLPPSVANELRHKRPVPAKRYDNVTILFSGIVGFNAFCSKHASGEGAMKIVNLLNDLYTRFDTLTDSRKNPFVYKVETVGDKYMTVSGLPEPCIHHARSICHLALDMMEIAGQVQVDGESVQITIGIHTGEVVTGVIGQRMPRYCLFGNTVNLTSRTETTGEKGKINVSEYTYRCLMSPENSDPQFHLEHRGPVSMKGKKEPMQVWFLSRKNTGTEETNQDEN
Description: B-2. Effect on a Recombinant Guanylate Cyclase Reporter Cell Line
The cellular effect of the inventive compounds is determined using a recombinant guanylate cyclase reporter cell line, as described in F. Wunder et al., Anal. Biochem. 339, 104-112 (2005).
Representative MEC values (MEC=minimum effective concentration) for the inventive compounds are shown in the table below (in some cases as mean values for individual determinations): […]

Structure (SMILES)	MEC (minimum effective concentration)
Cc1cc(OCc2c(F)ccc(F)c2F)n2nc(C)c(C(=O)NC(C#N)c3ccc(Cl)cc3)c2c1 (centres unmarked) [Example 34, N-[(4-Chlorophenyl)(cyano)methyl]-2,5-dimethyl-7-[(2,3,6-trifluorobenzyl)oxy]pyrazolo[1,5-a]pyridine-3-carboxamide]	1.0 µM
Cc1cc(OCc2c(F)cccc2F)n2nc(C3CC3)c(C(=O)NCC(C)(N)CCC(F)(F)F)c2c1 (single isomer, unassigned) [Example 58, ent-N-(2-Amino-5,5,5-trifluoro-2-methylpentyl)-2-cyclopropyl-7-[(2,6-difluorobenzyl)oxy]-5-methylpyrazolo[1,5-a]pyridine-3-carboxamide]	0.03 µM
Cc1cc(OCc2c(F)cccc2F)n2nc(C)c(C(=O)NC3CC(=O)Nc4ccccc43)c2c1 (racemic) [Example 76, rac-7-[(2,6-Difluorobenzyl)oxy]-2,5-dimethyl-N-(2-oxo-1,2,3,4-tetrahydroquinolin-4-yl)pyrazolo[1,5-a]pyridine-3-carboxamide trifluoroacetate]	0.3 µM
Cc1cc(OCc2c(F)cccc2F)n2nc(C)c(C(=O)NCC3CNC(=O)O3)c2c1 (racemic) [Example 100, rac-7-[(2,6-Difluorobenzyl)oxy]-2,5-dimethyl-N-[(2-oxo-1,3-oxazolidin-5-yl)methyl]pyrazolo[1,5-a]pyridine-3-carboxamide]	10 µM
Cc1cc(OCc2c(F)cccc2F)n2nc(C)c(C(=O)NC3CCOc4ncccc43)c2c1 (racemic) [Example 74, rac-7-[(2,6-Difluorobenzyl)oxy]-N-(3,4-dihydro-2H-pyrano[2,3-b]pyridin-4-yl)-2,5-dimethylpyrazolo[1,5-a]pyridine-3-carboxamide trifluoroacetate]	0.03 µM
CCC(CO)(CO)NC(=O)c1c(C)nn2c(OCc3c(F)ccc(F)c3F)cc(C)cc12 [Example 28, N-[1-Hydroxy-2-(hydroxymethyl)butan-2-yl]-2,5-dimethyl-7-[(2,3,6-trifluorobenzyl)oxy]pyrazolo[1,5-a]pyridine-3-carboxamide]	1.0 µM
CCOC(=O)NCCNC(=O)c1c(C)nn2c(OCc3c(F)cccc3F)cc(C)cc12 [Example 106, Ethyl {2-[({7-[(2,6-difluorobenzyl)oxy]-2,5-dimethylpyrazolo[1,5-a]pyridin-3-yl}carbonyl)amino]ethyl}carbamate]	1.0 µM
Cc1cc(OCc2c(F)cccc2F)n2nc(C)c(C(=O)NCC3CCC(=O)N3)c2c1 (racemic) [Example 95, rac-7-[(2,6-Difluorobenzyl)oxy]-2,5-dimethyl-N-[(5-oxopyrrolidin-2-yl)methyl]pyrazolo[1,5-a]pyridine-3-carboxamide]	10 µM
Cc1cc(OCc2c(F)ccc(F)c2F)n2nc(C)c(C(=O)NC(C)c3nc(C(F)(F)F)no3)c2c1 (racemic) [Example 19, rac-2,5-Dimethyl-7-[(2,3,6-trifluorobenzyl)oxy]-N-{1-[3-(trifluoromethyl)-1,2,4-oxadiazol-5-yl]ethyl}pyrazolo[1,5-a]pyridine-3-carboxamide]	0.3 µM
Cc1cc(OCc2c(F)cccc2F)n2nc(C)c(C(=O)NCC(C)(N)CCF)c2c1 (single isomer, unassigned) [Example 50, ent-N-(2-Amino-4-fluoro-2-methylbutyl)-7-[(2,6-difluorobenzyl)oxy]-2,5-dimethylpyrazolo[1,5-a]pyridine-3-carboxamide]	0.3 µM
Cc1cc(OCc2c(F)cccc2F)n2nc(C)c(C(=O)NN3CCOCC3)c2c1 [Example 135, 7-[(2,6-Difluorobenzyl)oxy]-2,5-dimethyl-N-(morpholin-4-yl)pyrazolo[1,5-a]pyridine-3-carboxamide]	3.0 µM
Cc1cc(OCc2c(F)cccc2F)n2nc(C)c(C(=O)NC3CC(C)Nc4ccc(C(F)(F)F)nc43)c2c1 (single isomer, unassigned; ent-7) [Example 86, ent-7-[(2,6-Difluorobenzyl)oxy]-2,5-dimethyl-N-[2-methyl-6-(trifluoromethyl)-1,2,3,4-tetrahydro-1,5-naphthyridin-4-yl]pyrazolo[1,5-a]pyridine-3-carboxamide]	3.0 µM
Cc1cc(OCc2c(F)cccc2F)n2nc(C)c(C(=O)NC3CCCc4cc(F)ccc43)c2c1 (racemic) [Example 150, rac-7-[(2,6-Difluorobenzyl)oxy]-N-(6-fluoro-1,2,3,4-tetrahydronaphthalen-1-yl)-2,5-dimethylpyrazolo[1,5-a]pyridine-3-carboxamide]	0.3 µM
COC(=O)[C@@H](N)CCCCNC(=O)c1c(C)nn2c(OCc3c(F)cccc3F)cc(C)cc12 [Example 131, Methyl N^6-({7-[(2,6-difluorobenzyl)oxy]-2,5-dimethylpyrazolo[1,5-a]pyridin-3-yl}carbonyl)-L-lysinate]	3.0 µM
Cc1cc(OCc2c(F)cccc2F)n2nc(C)c(C(=O)NCC3(N)CCCCC3)c2c1 [Example 124, N-[(1-Aminocyclohexyl)methyl]-7-[(2,6-difluorobenzyl)oxy]-2,5-dimethylpyrazolo[1,5-a]pyridine-3-carboxamide]	0.3 µM
Cc1cc(OCc2c(F)cccc2F)n2nc(C)c(C(=O)N[C@H](CO)c3ccc(C)o3)c2c1 [Example 178, 7-[(2,6-Difluorobenzyl)oxy]-N-[(1R)-2-hydroxy-1-(5-methyl-2-furyl)ethyl]-2,5-dimethylpyrazolo[1,5-a]pyridine-3-carboxamide]	1.0 µM
Cc1cc(OCc2c(F)cccc2F)n2nc(C)c(C(=O)NC3CC(=O)N(C)c4ccccc43)c2c1 (racemic) [Example 77, rac-7-[(2,6-Difluorobenzyl)oxy]-2,5-dimethyl-N-(1-methyl-2-oxo-1,2,3,4-tetrahydroquinolin-4-yl)pyrazolo[1,5-a]pyridine-3-carboxamide trifluoroacetate]	0.3 µM
Cc1cc(OCc2c(F)cccc2F)n2nc(C)c(C(=O)NC3c4cccc(F)c4OC3C)c2c1 (centres unmarked) [Example 111, 7-[(2,6-Difluorobenzyl)oxy]-N-(7-fluoro-2-methyl-2,3-dihydro-1-benzofur-3-yl)-2,5-dimethylpyrazolo[1,5-a]pyridine-3-carboxamide]	1.0 µM
Cc1cc(OCc2c(F)ccc(F)c2F)n2nc(C)c(C(=O)NC3c4ccccc4CC3O)c2c1 (centres unmarked) [Example 6]	1.0 µM
Cc1cc(OCc2c(F)cccc2F)n2nc(C)c(C(=O)NCC(N)c3csc(C)n3)c2c1 (racemic) [Example 73, rac-N-[2-Amino-2-(2-methyl-1,3-thiazol-4-yl)ethyl]-7-[(2,6-difluorobenzyl)oxy]-2,5-dimethylpyrazolo[1,5-a]pyridine-3-carboxamide trifluoroacetate]	3.0 µM
Cc1cc(OCc2c(F)cccc2F)n2nc(C)c(C(=O)NCC(C)(N)C(F)(F)F)c2c1 (racemic) [Example 109, rac-N-(2-Amino-3,3,3-trifluoro-2-methylpropyl)-7-[(2,6-difluorobenzyl)oxy]-2,5-dimethylpyrazolo[1,5-a]pyridine-3-carboxamide]	1.0 µM
Cc1cc(OCc2c(F)cccc2F)n2nc(C)c(C(=O)NCCC(C)(C)N)c2c1 [Example 121, N-(3-Amino-3-methylbutyl)-7-[(2,6-difluorobenzyl)oxy]-2,5-dimethylpyrazolo[1,5-a]pyridine-3-carboxamide]	10 µM
Cc1cc(OCc2c(F)cccc2F)n2nc(C)c(C(=O)NC3CC(C)(C)C3N)c2c1 (centres unmarked) [Example 101, N-(2-Amino-3,3-dimethylcyclobutyl)-7-[(2,6-difluorobenzyl)oxy]-2,5-dimethylpyrazolo[1,5-a]pyridine-3-carboxamide]	3.0 µM
